Where “and” joins values, the source holds several entries; their conditions need not be identical. Identical values can stand only once. Counter-ions that a name gives are not always drawn. Like-named read-outs stand apart in the source and are kept apart here.
Legend:
rat 5HT7 receptor = target: T1, rat 5HT7 receptor (Rattus norvegicus, UniProt P32305); test: Binding of [3H] LSD to rat 5HT7 receptor expressed in CHO cells
T1 construct: expressed in transfected cells; host or cells: CHO cells
Procedure: Binding of 2.0 nM [^3 H] LSD to a rat 5HT7 receptor expressed in CHO cells was measured for 60 minutes at 37° C. in 50 mM Tris-HCl buffer, pH 7.4, containing 10 mM MgCl2 and 0.5 mM EDTA. The reaction was terminated by rapid vacuum filtration onto glass fiber filters pretreated with 0.1% polyethyleneimine. Binding studies were made in duplicate in the absence of the drug and in the presence of between 6 and 8 concentrations of epinastine between 3 nM and 10 μM. Radioactivity trapped on the filters in the presence of each drug concentration was measured and compared with control values in order to ascertain interaction of the drug with the cloned 5-HT7 receptor site. Non-specific binding was determined in the presence of 5-carboxamidotryptamine (5-CT). The IC50 for the displacement of radiolabelled ligand was determined by graphical extrapolation and Ki values were calculated after correction for the radioligand occupancy shift by the Cheng and Prusoff equation (see Biochem. Pharmacol. 22, (1973): 3099-3108). Three experiments were carried out.

Male Wistar rats = system: Male Wistar rats
Procedure: Male Wistar rats weighing 175-190 g were anaesthetised with nembutal 50 mg/kg i.p. and the jugular vein was cannulated for injection of drugs. The animals were placed in a stereotaxic frame. Symmetrical boreholes were drilled 3.0 mm laterally and 3.2 mm posteriorly from bregma and the electrodes were lowered 9.5 mm from dura mater. The test compound epinastine or control solution were administered intravenously 10 min prior to electrical stimulation of the right trigeminal ganglion (5 min; 2.0 mA, 5 Hz, 5 ms duration and Evans blue (30 mg/kg i.v.), was given 5 min prior to electrical stimulation as a marker of plasma protein extravasation. 15 minutes after the end of the stimulation period the animals were perfused with 50 ml saline via the left cardiac ventricle to remove intravascular Evans blue. The dura mater was removed, blotted dry and weighed. Tissue Evans blue was extracted in 0.3 ml formamide at 50° C. for 24 h. Dye concentrations were measured with a spectrophotometer at 620 nm wavelength, interpolated on a standard curve and expressed as ng Evans blue content per mg tissue weight.
Extravasation was expressed as the quotient calculated by dividing the Evan's blue content of the stimulated side by the Evan's blue content of the unstimulated side. Results are expressed as means.

[1] = system: rats of the strain Chbb:THOM; test: animal or person; conditions: for Mean value of pain threshold: 3 hours after yeast
Procedure: The method of Randall and Selitto was modified through use of the Analgesia meter by Basile of Milan.
Groups of 10 fasted rats of the strain Chbb:THOM (weight 110-140 g, 5 male 5 female) were dosed orally with it Natrosol 250 HX, 1 ml/100 g body weight, containing 0, 0.3, 1.0, 3.0 or 10 mg/kg epinastine (racemic mixture). 1 hour later the rats were injected subplantar with a suspension of yeast cells in a volume 0.1 ml into the right hind paw. 3 hours after injection of the yeast suspension, the pain threshold was determined by increasing the pressure on the inflamed paw until a sign of pain was produced. From the pain threshold measured after the different doses of the epinastine, linear regression analysis was used to determine an ED50.

[2] = individual values of the three experiments, read-out: Measured Ki values
[3] = mean of three experiments, 2.0 nM [3H] LSD, 60 minutes at 37° C., read-out: mean Ki value

T1 sequence (P32305 whole entry): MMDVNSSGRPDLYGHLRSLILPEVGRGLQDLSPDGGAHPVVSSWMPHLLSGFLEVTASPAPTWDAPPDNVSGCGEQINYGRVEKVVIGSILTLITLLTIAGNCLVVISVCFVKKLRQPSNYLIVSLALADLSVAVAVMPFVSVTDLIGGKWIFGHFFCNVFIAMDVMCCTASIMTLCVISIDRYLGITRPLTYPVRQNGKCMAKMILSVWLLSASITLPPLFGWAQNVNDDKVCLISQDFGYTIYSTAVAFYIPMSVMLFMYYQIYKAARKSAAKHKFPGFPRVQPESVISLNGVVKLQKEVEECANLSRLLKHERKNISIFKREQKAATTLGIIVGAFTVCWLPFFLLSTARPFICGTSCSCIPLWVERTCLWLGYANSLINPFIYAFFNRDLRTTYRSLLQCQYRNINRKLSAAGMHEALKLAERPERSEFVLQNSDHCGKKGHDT

SMILES: NC1=NCC2c3ccccc3Cc3ccccc3N12 (racemic) [Epinastine, 3-amino-9,13b-dihydro-1H-dibenz[c,f]-imidazo[5,1-a]azepine hydrochloride]
- Ki (rat 5HT7 receptor; Measured Ki values, individual values of the three experiments): 27 nM and 41 nM and 30 nM
- Ki (rat 5HT7 receptor; mean Ki value, mean of three experiments, 2.0 nM [3H] LSD, 60 minutes at 37° C.): 33 nM
- Quotient stimulated/non-stimulated side, mean (Male Wistar rats; epinastine 10 μg/kg i.v., mean of 7 animals (control mean 1.25)): 0.98
- Evans blue extravasation induced by electrical stimulation of the trigeminal ganglion (Male Wistar rats; result in words): significantly reduced
- % Increase of pain threshold ([1]; 0.3 mg/kg p.o.): 9.6%
- Mean value of pain threshold ([1]; 0.3 mg/kg p.o.): 164.8 g/hind paw
- % Increase of pain threshold ([1]; 1.0 mg/kg p.o.): 56.4%
- Mean value of pain threshold ([1]; 1.0 mg/kg p.o.): 235.2 g/hind paw
- % Increase of pain threshold ([1]; 3.0 mg/kg p.o.): 72.5%
- Mean value of pain threshold ([1]; 3.0 mg/kg p.o.): 259.4 g/hind paw
- % Increase of pain threshold ([1]; 10.0 mg/kg p.o.): 81.4%
- Mean value of pain threshold ([1]; 10.0 mg/kg p.o.): 272.8 g/hind paw
- ED50 ([1]; Rattus norvegicus, po, read-out: ED50, dose required to increase the pain threshold by 50%): 1.1 mg/kg
- pain threshold in inflamed rat paw ([1]; result in words): increased the pain threshold

SMILES: NC1=NCC2c3ccccc3Cc3ccccc3N12 (single isomer, unassigned; (+)) [Epinastine (+) Enantiomer, (+)-3-Amino-9,13b-dihydro-1H-dibenz-[c,f]-imidazo[1,5a]-azepine-hydrochloride]
- Ki (rat 5HT7 receptor; [2]): 45 nM and 18 nM and 22 nM
- Ki (rat 5HT7 receptor; [3]): 28 nM

SMILES: NC1=NCC2c3ccccc3Cc3ccccc3N12 (single isomer, unassigned; (-)) [Epinastine (-) Enantiomer, (-)-3-Amino-9,13b-dihydro-1H-dibenz-[c,f]-imidazo[1,5a]-azepine-hydrochloride]
- Ki (rat 5HT7 receptor; [2]): 155 nM and 204 nM and 207 nM
- Ki (rat 5HT7 receptor; [3]): 189 nM

SMILES: CN1CCC(=C2c3ccccc3CC(=O)c3sccc32)CC1 [Ketotifen]
- Ki (rat 5HT7 receptor; [2]): 406 nM and 572 nM and 331 nM

SMILES: COc1ccc(CN(CCN(C)C)c2ccccn2)cc1 [Mepyramine]
- Ki (rat 5HT7 receptor; [2]): 2660 nM and 747 nM and 1330 nM
